Assays:
[1] = target: T1, mFPR1 receptor (Mus musculus, UniProt P33766); assay: Functional assay with mFPR1 receptor; type: cell-based; settings: read-out: function affinity with mFPR1 receptor
T1 sequence (P33766 1-364): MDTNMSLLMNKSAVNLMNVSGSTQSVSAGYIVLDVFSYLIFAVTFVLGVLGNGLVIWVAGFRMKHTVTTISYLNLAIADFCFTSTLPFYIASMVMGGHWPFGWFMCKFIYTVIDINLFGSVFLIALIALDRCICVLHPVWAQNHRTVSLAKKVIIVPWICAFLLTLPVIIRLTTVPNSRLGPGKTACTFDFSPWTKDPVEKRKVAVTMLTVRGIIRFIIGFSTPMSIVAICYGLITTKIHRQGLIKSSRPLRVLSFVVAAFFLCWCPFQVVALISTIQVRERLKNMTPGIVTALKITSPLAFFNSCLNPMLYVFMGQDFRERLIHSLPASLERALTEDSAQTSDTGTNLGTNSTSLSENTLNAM

[2] = tested on: human HL60 cell line; assay: HL-60 cell migration assay antagonist mode (SAA-induced chemotaxis); type: cell-based; settings: read-out: affinity for antagonism of chemotaxis induced by SAA
Experimental: (§1) HL-60 cell culture and differentiation. The HL-60 cell line (ATCC, CCL-240, lot 60398411) was maintained in IMDM (Life Tech, cat 12440-053) medium supplemented with 20% fetal bovine serum, 50 U/ml penicillin, and 50 μg/ml streptomycin at 37° with 5% CO2. Cells were differentiated into the granulocyte lineage with DMSO; 2.5×10^5 cells/ml were incubated with 1.25% DMSO for 5 days.
Neutrophil and HL-60 cell migration assay antagonist mode. After 5 day differentiation, the cells were resuspended in phenol free RPMI (Invitrogen, cat 11835) with 0.2% fatty acid free BSA at a concentration of 3×10^7 cells/ml. The dHL-60 cells (10^5 in 100 μl) were pre-incubated for 15 minutes with varying concentrations of the […] at 37° with 5% CO2. Then 0.8uM of the recombinant serum amyloid A1 peptide (rSAA1, PeproTech, Cat#300-53) was added to the bottom chamber of each HTS transwell-96well plate (Coming#3387). Migration was induced by placing […] and the dHL60 cells mixture in the top chamber of the transwell plate. Cells were allowed to migrate for 120 min across the 5micron filters at 37° with 5% CO2. Following migration, neutrophils or dHL-60 cells remaining in the transwell lower chamber (migrated fraction) were quantitated using the cell-titer-glo luminescence cell viability assay (Promega, G7571).

[3] = target: T2, mFPR3 (Mus musculus, UniProt O08790); assay: cAMP assay in CHO-A12 cell line over-expressing mouse mFPR3; type: cell-based; settings: CHO-A12 cells over-expressing mFPR3; read-out: activity against mFPR3
T2 construct: expressed in transfected cells; host or cells: CHO-A12
T2 sequence (O08790 1-351): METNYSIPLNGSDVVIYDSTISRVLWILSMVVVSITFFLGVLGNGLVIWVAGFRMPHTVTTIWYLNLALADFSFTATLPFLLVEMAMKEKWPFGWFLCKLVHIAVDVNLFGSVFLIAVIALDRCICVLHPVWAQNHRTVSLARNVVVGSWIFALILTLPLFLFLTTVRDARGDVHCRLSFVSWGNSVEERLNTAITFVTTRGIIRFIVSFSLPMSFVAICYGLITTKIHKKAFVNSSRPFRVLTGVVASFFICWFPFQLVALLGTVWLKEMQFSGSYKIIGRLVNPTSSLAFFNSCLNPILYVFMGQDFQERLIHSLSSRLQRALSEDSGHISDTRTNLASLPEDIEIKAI

[4] = tested on: mice; assay: Angiotensin II challenge myocardial fibrosis model; type: in vivo, mouse; settings: for decrease of left ventricular hydroxyproline content vs vehicle: p<0.05
Experimental: To assess myocardial fibrosis, mice were challenged with angiotensin II to stimulate cardiac hypertrophy and left ventricular collagen deposition. Mice were administered angiotensin II using subcutaneously implanted osmotic mini-pumps (˜2 mg/kg/day) A separate group of mice were implanted with subcutaneous pumps containing saline (surgical “sham” group); these mice served as control for pump implantation surgery. […] Treatments lasted for 2-3 weeks, depending on the exact study design. At the end of treatment phase, hearts were removed from animals and evaluated for collagen levels/fibrosis using a standard colorimetric assay for myocardial hydroxyproline or by cross-sectional histology of the hearts.
Myocardial fibrosis was evaluated in the mouse with continuous angiotensin II challenge administered by subcutaneous osmotic mini-pump.

[5] = tested on: human HL60 cell line; assay: Flipr calcium flux assay using dHL60 cell line; type: cell-based; settings: HL-60; neutrophil like human HL60 cell line; read-out: potency for increase of cytosolic Ca2+ levels
Experimental: Flipr assay using dHL60 non-adherent cell line. HL60 cells were diluted to 1.5×10^5 cells/ml and were grown in culture medium containing 1.3% DMSO at 37C for 5 days. On day 6 cells were counted to make sure that cells viability was approx. 95%. The 1.2×10^7 cells were spin down and washed cells once with assay buffer. The supernatant was removed and cells were re-suspended in 12 ml buffer with fluo-4 AM loading dye and label cells at 37C for 30 min. Loading buffer: HBSS (invitrogen, cat 14075), 20 mM HEPES, 0.1% FAF-BSA, 15 ul of 0.025% pluronic F127 (Invitrogen, P3000 MP), 2.5 mM probenecid, 1.9 uM Fluo-4 AM (Invitrogen, F14201). After incubation cells were washed once with reaction buffer to remove the dye and were re-suspended at 1×10^6 cells/ml. Following wash, cells were plated in 100 ul/well in Poly-D-Lysine pre-coated 96 well assay plates. Assay plates were centrifuged at 1000 rpm for 10 min and then placed in the FLIPR to perform calcium flux assay.

[6] = tested on: human HL60 cell line; assay: HL-60 cell migration assay agonist mode; type: cell-based; settings: read-out: potency for stimulation of chemotaxis by itself
Experimental: as §1
Neutrophil and HL-60 cell migration assay agonist mode. After 5 day differentiation, cells were resuspended in phenol free RPMI (Invitrogen, cat 11835) with 0.2% fatty acid free BSA at a concentration of 3×10^7 cells/ml. The dHL-60 cells (10^5 in 100 μl) were added to the upper chamber of each HTS transwell-96well plate (Corning#3387). Migration was induced by placing chemoattractant in the bottom chamber and the dHL60 cells in the top chamber of the transwell plate. Cells were allowed to migrate for 120 min across the 5 micron filters at 37° with 5% CO2. Following migration, neutrophils or dHL-60 cells remaining in the transwell lower chamber (migrated fraction) were quantitated using the cell-titer-glo luminescence cell viability assay (Promega, G7571).

[7] = tested on: mouse bio-gel elicited peritoneal macrophages; assay: Enhancement of phagocytosis in bio-gel elicited peritoneal macrophages; type: cell-based
Experimental: Enhancement of phagocytosis. Macrophages were elicited to the peritoneum of five C57BL6 mice by peritoneal injection of 1 ml of 1% Biogel in PBS (−/−) 4 days prior to harvest. Peritoneal exudates are harvested, combined and then filtered to remove Biogel beads. First, through a 70 um cell strainer followed by successively filtering through two 40 um cell strainers. The exudate is diluted with 1× PBS (−/−) to 50 ml and centrifuged at 300× g for 10 minutes at 4° C. The cell pellet is gently resuspended in 20-30 ml 1× PBS(+/+) and cells are counted using the Nexelcom Cellometer counter. Cell concentration is adjusted to 1,250,000 cells/ml in 1× PBS (+/+). 100 ul (125 k) cells are placed into each well of a 96-well Costar 3904 plate. The plates are centrifuged at 150× g for 30 seconds to promote adherence. […] Fluorescence signal from non-ingested Zymosan particles is quenched with 150 ul ice-cold 1:15 diluted Trypan Blue solution for 2 minutes and then aspirated to remove. Lastly, the plate is read on a SpectraMAX Gemini EM fluorescence plate reader in 150 ul of 1:50 diluted Trypan Blue. Plate Reader Settings=Bottom Read: Excitation 493 nm: Emission 525 nm: Cutoff 515 nm: Automix Off: Calibrate On: PMT=Auto: Column Priority: Reads/Well=20.

[8] = target: T3, mFPR2/ALX (Mus musculus, UniProt O88536); assay: cAMP assay in CHO-A12 cell line over-expressing mouse mFPR2; type: cell-based; settings: CHO-A12 cells over-expressing mFPR2; read-out: potency as activator of mFPR2/ALX
T3 construct: expressed in transfected cells; host or cells: CHO-A12
T3 sequence (O88536 1-351): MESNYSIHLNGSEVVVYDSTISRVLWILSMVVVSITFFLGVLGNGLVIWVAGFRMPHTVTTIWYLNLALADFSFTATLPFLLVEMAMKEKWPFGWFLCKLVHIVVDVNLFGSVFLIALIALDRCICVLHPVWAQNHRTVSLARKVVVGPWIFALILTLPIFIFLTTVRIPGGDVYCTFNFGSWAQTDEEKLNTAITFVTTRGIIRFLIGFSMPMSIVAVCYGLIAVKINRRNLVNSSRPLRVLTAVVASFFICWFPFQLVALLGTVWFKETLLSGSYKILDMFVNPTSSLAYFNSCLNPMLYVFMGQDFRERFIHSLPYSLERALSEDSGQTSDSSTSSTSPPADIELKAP

[9] = tested on: mice; assay: Permanent coronary artery occlusion myocardial infarction model; type: in vivo
Experimental: Animal models. Permanent coronary artery occlusion was carried out in mice using a ligature placed around the left anterior descending artery to induce myocardial infarction. […] Mice subjected to thoracotomy but not infarcted were included as surgical “sham” controls. Mice were evaluated 28 days following myocardial infarction to assess structure/function relationships. Hearts were removed from mice to evaluate the passive mechanics of the myocardium. To do this, ex vivo pressure-volume relationships of the left ventricle were measured via inflation and deflation cycles of a balloon placed within the left ventricle of the excised heart. Two-dimensional strains of the myocardial scar were also measured to determine the compliance of infarcted tissue. Hearts were also processed histologically to measure left ventricular dimensions, infarct areas and infarct collagen composition.

[10] = mice, oral 1 and 10 mg/kg QD, stated for both models

CC(C)c1c(NC(=O)Nc2ccc(Cl)cc2)c(=O)n(-c2ccccc2)n1C [Compound 1, 1-(4-chlorophenyl)-3-(5-isopropyl-1-methyl-3-oxo-2-phenyl-2,3-dihydro-1H-pyrazol-4-yl)urea]
EC50 [1]: ~50 nM
IC50 [2]: 189 nM
EC50 [3]: > 10000 nM
decrease of left ventricular hydroxyproline content vs vehicle ([4]; 1 mg/kg, pre-treatment 24 h before angiotensin II, 2 weeks): 83%
decrease of left ventricular hydroxyproline content vs vehicle ([4]; 10 mg/kg, pre-treatment 24 h before angiotensin II, 2 weeks): 75%
interstitial collagen by histology of the left ventricle ([4]; pre-treatment 24 h before angiotensin II, 2 weeks): Comparable reductions
hydroxyproline content and interstitial collagen levels by histology ([4]; treatment given at the time of angiotensin II challenge): comparable reductions
reduction of interstitial fibrosis in the left ventricle vs vehicle ([4]; treatment started after 3 days of angiotensin II, 2.5 weeks, histology, p<0.001): ~74%
EC50 [5]: 50 nM
EC50 [6]: 78 nM
enhancement of phagocytosis of fluorescently labeled zymosan vs untreated control cells ([7]; compound in picomolar range, depending on experimental conditions): 250 to 60%
enhancement of phagocytosis in knockout macrophages ([7]; macrophages from single mFPR2 and mFPR3 or double mFPR2/FPR3 knockout mice): no such enhancement
EC50 [8]: 20 nM
reduction of infarct area (as % of left ventricle area) vs vehicle ([9]; 1 mg/kg, histology, p<0.05): 44%
reduction of left ventricular chamber area vs vehicle (histology) ([9]; 1 mg/kg, p<0.05): 28%
reduction of infarct area (as % of left ventricle area) vs vehicle ([9]; 10 mg/kg, histology, p<0.05): 49%
reduction of left ventricular chamber area vs vehicle (histology) ([9]; 10 mg/kg, p<0.05): 30%
ex vivo left ventricle pressure-volume curves ([9]; 28 days post MI, 1 and 10 mg/kg QD oral): left shifted in a dose-dependent manner
pressure-volume slopes (myocardial stiffness) ([9]; 28 days post MI, ex vivo): greater than vehicle and similar to normal sham control mice
two-dimensional scar strains ([9]; 28 days post MI, ex vivo): reduced circumferential and longitudinal strains relative to vehicle treatment
overall mortality ([9]; high dose): decrease in overall mortality
increased anterior left ventricular wall thickness at site of infarction vs vehicle ([9]; histology, p<0.05): 45-65%
tolerability throughout the in-life phase [9, 10]: well tolerated
untoward effects on the physiology of the mice [9, 10]: no untoward effects

Source: patent US20180325869A1, “TARGETING OF THE FORMYL-PEPTIDE RECEPTOR 2/LIPOXIN A4 RECEPTOR (FPR2/ALX) FOR TREATMENT OF HEART DISEASE” (BRISTOL-MYERS SQUIBB COMPANY, priority 2015, published 2018)
